The values that follow come from US20040224981A1, “Antibacterial methods and compositions” (priority 2003, published 2004).

Assay [1] deals with S. aureus RN4220 (pYH4-MRS). The assay can be described thus: Mode of action: MIC with MRS over-production. The format is cell-based.
Method: The strain expresses high levels of MRS upon the addition of 0.01 μg/mL of anyhdrotetracycline.
The next assay concerns S. aureus. The assay can be described thus: MIC against S. aureus strains and clinical isolates (broth microdilution). In kind it is cell-based, Staphylococcus aureus. The protocol:
were tested against a collection of clinical isolates of S. aureus including strains that were multi-resistant to mupirocin and to other agents such as gentamicin and oxacillin.
The acetate and mupirocin salts of the MRS inhibitor compound 5 were tested against a collection of both low and high-level mupirocin resistant clinical isolates of S. aureus (Table 6).
The bacterial strains were tested for susceptibility to mupirocin and MRSi compound 2 using the broth microdilution method in accordance with NCCLS guideline to determine their MICs.
Briefly, the MIC and checkerboard titration assays were performed with strains in microtiter trays with cation-supplemented Mueller-Hinton broth (Difco). Inocula were prepared by suspending growth from blood agar plates in sterile saline to a density equivalent to that of a 0.5 McFarland standard and were diluted […] to produce a final inoculum of 5×10^5 CFU/ml. The trays were incubated aerobically overnight. Standard quality control strains were included with each run. Fractional inhibitory concentrations (FICs) were calculated as the MIC of drug A or B in combination/MIC of drug A or B alone, and the FIC index was obtained by adding the two FICs. FIC indices were interpreted as synergistic if the values were ≦0.5, additive or indifferent if the values were >0.5 to 4, and antagonistic if the values were >4.0.
A general note: Broth dilution looks for growth in wells or tubes with falling amounts of substance.

The test system of a further assay is E. faecalis. The assay can be described thus: MIC against E. faecalis. The format is cell-based. As for the experimental part: (§1) The MRS inhibitor 4 alone and in combination with mupirocin (mupirocin salt and 1:1 combination) were tested against a collection of Gram-positive pathogens.
(§2) MRSi compound 5 alone and in combination with mupirocin was tested recent clinical isolates of E. faecalis (n=28) and E. faecium (n=23). Both the acetate salt and mupirocinate salts of MRSi compound 5 maintained potent activity against vancomycin-susceptible and—resistant enterococci (Tables 8, 9, and 10).

The next assay concerns S. pyogenes. The assay can be described thus: MIC against S. pyogenes. The format is cell-based, Streptococcus pyogenes. The protocol: as §1
S. pyogenes is also a significant skin pathogen and 48 recent clinical isolates were tested for their susceptibility to MRSi compound 5 alone (acetate) and in combination (1:1) with mupirocin (mupirocinate).

Another assay relates to S. epidermidis. Put plainly: MIC against S. epidermidis. In kind it is cell-based. The protocol: as §1
(§3) The MRS inhibitor 8 was also prepared as a fusidate and mupirocinate salt and tested for antibacterial activity against Gram-positive bacteria (Table 3). […] MRSi compound 8 alone and the fusidate and mupirocin salts were active against mupirocin-resistant S. aureus and S. epidermidis and organisms such as E. faecalis that are not susceptible to mupirocin.
(§4) The MRS inhibitor 5 acetate and mupirocin salts were tested against a collection of Gram-positive bacteria.

Another assay relates to S. hemolyticus. Put plainly: MIC against S. hemolyticus. In kind it is cell-based. As for the experimental part:
as §1, §3, §4

The subject of assay [2] is S. aureus, coagulase-negative staphylococci and S. pyogenes strains. The assay can be described thus: Serial passage, whole panel of 19 isolates. The format is cell-based. As to conditions: after 20 passages; observed with five of the 19 organisms tested. The protocol:
MRSi compound 5 (acetate salt), mupirocin and MRSi compound 5/mupirocin 1:1 combination were tested for development of resistance following serial passage using 19 isolates, including S. aureus, coagulase-negative staphylococci and S. pyogenes strains.

For a further assay, the system named is E. faecium. The assay can be described thus: MIC against E. faecium. In kind it is cell-based. The note with it: Enterococcus faecium, ATCC33667. The protocol: as §2
For assay [3], the system named is S. aureus ATCC 29213 and 31-1334. The assay can be described thus: Selection of spontaneous resistant mutants (mutation frequency). In kind it is cell-based, Staphylococcus aureus. As for the experimental part: Approximately, 10^9 bacteria were plated onto Mueller-Hinton agar supplemented with 10% horse blood and containing various concentrations of the test compounds alone and in combination. After 24 and 48 hours of incubation at 35° C., the bacterial colonies were counted and the frequencies of mutation were determined relative to the total viable count of organisms that were plated. Resistant clones were re-plated once on plates containing the same concentration of agent that was used for the selection.

The mark [4] stands for this setting: S. aureus RN4220 (pYH4-MRS), +aTC (MRS over-expression).
[5] abbreviates: Enterococcus faecalis, ATCC 51299 / VRE, Table 8, E. faecalis ATCC 51299 (VRE).
Setting [6] is: Enterococcus faecalis, Table 8, E. faecalis 1.
[7] abbreviates: Enterococcus faecalis, Table 8, E. faecalis 7.

What is called MIC is the lowest concentration that inhibits growth of the organism.

≈ marks a conversion by molar mass, not a printed value. Structures can show the parent of a compound that is named as a salt. Where two headings read alike, the source gives them in different places.

Take `CO[C@@H]1[C@@H](OC(N)=O)[C@@H](O)[C@H](Oc2ccc3c(O)c(NC(=O)c4ccc(O)c(CC=C(C)C)c4)c(=O)oc3c2C)OC1(C)C` [Novobiocin]: the MIC in [1] (setting [4]) and in assay [1] (Staphylococcus aureus) was 0.25 µg/mL (≈ 0.408 µM) in each case.

In the case of `Clc1cc(Cl)c2c(Cl)c(CNCCCNc3nc4ncccc4[nH]3)[nH]c2c1` [MRSi Cmpd 8 acetate, N-(1H-imidazo[4,5-b]pyridin-2-yl)-N′-(3,4,6-trichloro-1H-indol-2-ylmethyl)—propane-1,3-diamine], the MIC in the assay on S. aureus (Staphylococcus aureus, ATCC29213, Table 3, S. aureus ATCC 29213, read-out: MIC) came out at 0.06 µg/mL; in the assay with S. aureus (Staphylococcus aureus, ATCC43300, Table 3, S. aureus ATCC 43300 (ORSA), read-out: MIC), 0.03 µg/mL; in the assay with S. aureus (Staphylococcus aureus, NRS107, Table 3, S. aureus NRS107 (mupA), read-out: MIC) it was 0.03 µg/mL; in the assay on S. aureus (Staphylococcus aureus, Table 3, S. aureus Oxford, read-out: MIC), 0.03 µg/mL; in the assay on E. faecalis (Enterococcus faecalis, ATCC29212, Table 3, E. faecalis ATCC 29212, read-out: MIC), 0.03 µg/mL; with E. faecalis (Enterococcus faecalis, Table 3, E. faecalis 1, read-out: MIC), 0.03 µg/mL. The MIC came to 0.03 µg/mL in the assay on E. faecalis (Enterococcus faecalis, Table 3, E. faecalis 7, read-out: MIC); 0.12 µg/mL with S. pyogenes (Streptococcus pyogenes, ATCC19615, Table 3, S. pyogenes ATCC 19615, read-out: MIC); 0.12 µg/mL in the assay with S. pyogenes (Streptococcus pyogenes, Table 3, S. pyogenes MB143 (macrolide rest.), read-out: MIC); 0.12 µg/mL with S. epidermidis (Staphylococcus epidermidis, Table 3, S. epidermidis NRS6, read-out: MIC); 0.06 µg/mL in the assay on S. epidermidis (Staphylococcus epidermidis, Table 3, S. epidermidis NRS7, read-out: MIC); 0.12 µg/mL with S. epidermidis (Staphylococcus epidermidis, Table 3, S. epidermidis NRS8, read-out: MIC). The MIC was 0.06 µg/mL in the assay on S. hemolyticus (Table 3, S. hemolyticus NRS50, read-out: MIC) and 0.12 µg/mL in the assay with S. hemolyticus (Table 3, S. hemolyticus NRS116, read-out: MIC).

On to `C=C(F)c1sc(CNCCCNc2cc(=O)c3ccccc3[nH]2)c(C)c1Br` [MRSi Cmpd 5, N-(4-bromo-5-(1-fluorovinyl)-3-methylthiophen-2-ylmethyl)-N′-(1H-quinolin-4-one)propane-1,3-diamine], for which the “increase in MIC on over-expression of MRS” value in [1] (+aTC vs −aTC, 0.01 μg/mL anhydrotetracycline) is 8 fold. The MIC in assay [1] (setting [4]) was 1 µg/mL (≈ 2.22 µM); in [1] (S. aureus RN4220 (pYH4-MRS), −aTC (no anhydrotetracycline)), 0.12 µg/mL (≈ 0.266 µM). Moreover, the “MICs of the most resistant isolates that could be selected” value in assay [2] was 16 µg/mL.

As for `CC(=CC(=O)OCCCCCCCCC(=O)O)CC1OCC(CC2OC2C(C)C(C)O)C(O)C1O.Cc1c(CNCCCNc2cc(=O)c3ccccc3[nH]2)sc(Br)c1Br` (centres unmarked) [MRSi Cmpd 4 mupirocinate, N-(4,5-DIBROMO-3-METHYLTHIOPHEN-2-YLMETHYL)-N′-(1H-QUINOLIN-4-ONE)PROPANE-1,3-DIAMINE MUPIROCINATE], the MIC in the assay with S. aureus (Table 2, S. aureus ATCC 29213) stood at 0.5 µg/mL; in the assay on S. aureus (Table 2, S. aureus ATCC 43300 (ORSA)) it was 0.5 µg/mL; in the assay with S. aureus (Table 2, S. aureus NRS107 (mupA)), 0.25 µg/mL; in the assay with S. aureus (Table 2, S. aureus Oxford), 0.25 µg/mL; with E. faecalis (Table 2, E. faecalis 1) it was 0.12 µg/mL; with E. faecalis (Table 2, E. faecalis 7), 0.12 µg/mL. Also, the MIC with E. faecalis (Table 2, E. faecalis ATCC 29212) turned out to be 0.06 µg/mL; with S. pyogenes (Table 2, S. pyogenes ATCC 19615), 0.25 µg/mL; in the assay with S. pyogenes (Table 2, S. pyogenes MB143 (macrolide rest.)), 0.25 µg/mL; in the assay with S. epidermidis (Table 2, S. epidermidis NRS6), 1 µg/mL; with S. epidermidis (Table 2, S. epidermidis NRS7), 0.25 µg/mL; in the assay with S. epidermidis (Table 2, S. epidermidis NRS8), 1 µg/mL. Also, the MIC in the assay with S. hemolyticus (Table 2, S. hemolyticus NRS50) came out at 0.5 µg/mL; in the assay with S. hemolyticus (Table 2, S. hemolyticus NRS116) it was 0.5 µg/mL.

Turning to `CN[C@H](CC(C)C)C(=O)N[C@H]1C(=O)N[C@@H](CC(N)=O)C(=O)N[C@H]2C(=O)N[C@H]3C(=O)N[C@H](C(=O)N[C@H](C(=O)O)c4cc(O)cc(O)c4-c4cc3ccc4O)[C@H](O)c3ccc(c(Cl)c3)Oc3cc2cc(c3O[C@@H]2O[C@H](CO)[C@@H](O)[C@H](O)[C@H]2O[C@H]2C[C@](C)(N)[C@H](O)[C@H](C)O2)Oc2ccc(cc2Cl)[C@H]1O` [Vancomycin, reference compound], the MIC was determined as 4 µg/mL with E. faecalis (setting [5]); 0.12 µg/mL with E. faecalis (setting [6]); 0.5 µg/mL in the assay on E. faecalis (setting [7]); 0.5 µg/mL in the assay with E. faecium; 0.5 µg/mL (≈ 0.345 µM) in assay [1] (setting [4]); 0.5 µg/mL (≈ 0.345 µM) in assay [1] (Staphylococcus aureus).

As to `Brc1cc(Br)c2c(c1)C(NCCCNc1nc3ncccc3[nH]1)CCN2` (centres unmarked) [MRSi cmpd 2, N-(6,8-Dibromo-1,2,3,4-tetrahydroquinolin-4-yl)-N′-(1H-imidazo[4,5-b]pyridine-2-yl)-propane-1,3-diamine dihydrochloride], the MIC with S. aureus (Staphylococcus aureus, ATCC43300, S. aureus ATCC 43300 (ORSA), read-out: MIC) worked out at 0.25 µg/mL; with S. aureus (Staphylococcus aureus, NRS 1 / VISA, S. aureus NRS1 (VISA)), 0.25 µg/mL; in the assay with S. aureus (Staphylococcus aureus, NRS107, S. aureus NRS107 (HL Mup rest.), read-out: MIC), 0.06 µg/mL; with S. aureus (Staphylococcus aureus, S. aureus 10-420 (LL Mup. Rest.), read-out: MIC) it was 0.25 µg/mL; in the assay with S. aureus (Staphylococcus aureus, S. aureus 14-354 (LL Mup. Rest.), read-out: MIC) it was 0.25 µg/mL; in the assay with S. aureus (Staphylococcus aureus, S. aureus 25-670 (HL Mup. Rest.), read-out: MIC) it was 0.25 µg/mL. The MIC in the assay on S. aureus (Staphylococcus aureus, S. aureus 31-1334 (LL Mup Rest.), read-out: MIC) came to 0.25 µg/mL; in the assay on S. aureus (Staphylococcus aureus, S. aureus 36-1298 (LL Mup. Rest.), read-out: MIC), 0.06 µg/mL; in the assay on S. aureus (Staphylococcus aureus, S. aureus 87-2797 (HL Mup. Rest.), read-out: MIC), 0.25 µg/mL; in the assay with S. aureus (Staphylococcus aureus, S. aureus 87-2797 (Mup. Susc.), read-out: MIC) it was 0.25 µg/mL; in the assay with S. aureus (Staphylococcus aureus, S. aureus 101-100 (Mup. Susc.), read-out: MIC) it was 0.12 µg/mL; in the assay on S. aureus (Staphylococcus aureus, S. aureus LZ1 (HL Mup rest.), read-out: MIC), 0.12 µg/mL. The MIC in the assay on S. aureus (Staphylococcus aureus, S. aureus LZ6 (HL Mup rest.), read-out: MIC) was 0.25 µg/mL; with S. aureus (Staphylococcus aureus, S. aureus LZ8 (LL Mup. Rest.), read-out: MIC), 0.25 µg/mL; with S. aureus (Staphylococcus aureus, S. aureus LZ9, read-out: MIC), 0.25 µg/mL; in the assay with S. aureus (Staphylococcus aureus, S. aureus LZ10, read-out: MIC), 0.25 µg/mL; in the assay with S. aureus (Staphylococcus aureus, S. aureus Miles Hall, read-out: MIC) it was 0.12 µg/mL; in the assay with S. aureus (Staphylococcus aureus, S. aureus Oxford, read-out: MIC) it was 0.12 µg/mL. Also, the MIC with S. aureus (Table 12, S. aureus 25-670, high level mupirocin-resistant, agent alone) was 0.5 8 g/mL; in the assay on E. faecalis (setting [5]), 0.03 µg/mL; in the assay with E. faecalis (setting [6]) it was 0.015 µg/mL; in the assay with E. faecalis (setting [7]), 0.06 µg/mL; with E. faecium, not above 0.004 µg/mL. Besides, the MIC90 with S. aureus (Staphylococcus aureus, all S. aureus strains of Table 1, read-out: MIC 90) was determined as 0.25 µg/mL. Further, the “MIC Range” value with S. aureus (all S. aureus strains of Table 1 (mupirocin-susceptible and -resistant)) lay in the range of 0.06 to 0.25 µg/mL. The “Mutation Frequency (48 hours)” value in assay [3] (S. aureus 31-1334 (low level mupirocin-resistant), selecting concentration 2 x MIC) is 3.3 × 10^−7; in assay [3] (S. aureus 31-1334 (low level mupirocin-resistant), selecting concentration 4 x MIC), 6.8 × 10^−8; in assay [3] (S. aureus 31-1334 (low level mupirocin-resistant), selecting concentration 8 x MIC) it was 1.9 × 10^−8; in assay [3] (S. aureus ATCC 29213 (mupirocin susceptible), selecting concentration 2 x MIC), 1.01 × 10^−7; in assay [3] (S. aureus ATCC 29213 (mupirocin susceptible), selecting concentration 4 x MIC) it was 3.14 × 10^−8; in [3] (S. aureus ATCC 29213 (mupirocin susceptible), selecting concentration 8 x MIC), 2.07 × 10^−8.
